Test results as given in US9539237B2, “Compositions and methods for drug-sensitization or inhibition of a cancer cell” (The Texas A&M University System, priority 2012, dated 2017).

Tests used:
[1] = test system: CHOP-sensitive NHL cell line CRL2631; assay: Cell growth assay (resazurin fluorescence) on CRL2631 cells; type: cell-based, human
Excerpt: Several human cell lines were utilized as in vitro models of NHL, including the CRL2631 line obtained from the American Type Culture Collection (ATCC). CRL2631 was established from peripheral blood leukocytes (PBL) of a patient with DLBCL.
In these experiments, the following cell lines were used: CHOP-resistant NHL cell line G3, CHOP-sensitive NHL cell line CRL2631, the multi-drug resistant sarcoma cell line MES-SA-Dx5; multi-drug-resistant breast cancer cell line MDA-MB-231, multi-drug resistant ovarian carcinoma cell line SK-OV3, multi-drug resistant ovarian cancer cell line NCI/ADR-RES, drug-sensitive ovarian cancer cell line OVCAR-5, and multi-drug resistant ovarian cancer cell line OVCAR-3.
Additional cell lines used include: ovarian cancer OVCAR-8. T lymphoblastoid leukemia MOLT-4, dexamethasone-resistant multiple myeloma MM.1R, myeloid leukemia cells HL-60, osteosarcoma cells U-2 OS, and myeloma RPMI 8226.

[2] = test system: G3 CHOP-resistant NHL cells; assay: G3 tumor efficacy studies in SCID mice; type: in vivo
Procedure: In a first efficacy study, 6-8 week old female SCID mice (7 mice per treatment arm) were injected subcutaneously on both flanks with 1×10^7 G3 CHOP-resistant NHL cells. Once palpable tumors (about […] size) appeared, therapies (CHOP or CHOP+rifabutin) were started. CHOP was administered at the maximum tolerated dose (cyclophosphamide, 40 mg/kg i.v.; doxorubicin, 3.3 mg/kg i.v.; vincristine, 0.5 mg/kg i.v.; and prednisone, 0.2 mg/kg orally daily for 5 d) weekly for 3 weeks. Rifabutin in an amount of 100 mg/kg was administered on the day of each CHOP treatment and 24-hours later by gavage. Mouse body weight and tumor size were monitored every two days and tumor size measured by caliper. The tumor volume formula (L*W*W)/2 was used to calculate tumor mass.
A second efficacy study was conducted where mice were treated before the appearance of palpable tumors. In that experiment, one week after transplantation of CHOP-resistant G3 cells, one group (7 mice) was treated with CHOP-only and a second group (8 mice) was treated with CHOP+rifabutin.
A third study was conducted in which mice injected with CHOP-resistant G3 cells received reduced dosages of CHOP in combination with 33 mg/kg rifabutin. CHOP+rifabutin was administered weekly beginning one week post-inoculation. Control mice were given no CHOP or rifabutin.
SCID mice were injected with CHOP-resistant G3 cells in the same manner as the first efficacy study above. Treatments began 2 weeks post-inoculation and were administered twice weekly.

total intracellular ROS = assay: Intracellular ROS by CellROX staining and flow cytometry; type: cell-based; conditions: CHOP-resistant (G3) cells, 10 uM rifabutin, FIG. 35
Excerpt: Cells were then stained with the fluorescent ROS indicator, CellROX, and subjected to flow cytometry to quantitate total intracellular ROS.
The electron transport chain (ETC) is known to be a primary generator of ROS in the cell. Most of the ROS is generated by Complexes I and III of the ETC. Inhibition of Complex I results in electrons piling up and leaking to react with oxygen to produce ROS.
MDR/P-gp activity is closely associated with calcium status in the cell, so calcium modulators were tested for effects on ROS. […] Relatively Dox-sensitive lymphoma (CRL2631, 10S, WSU) and ovarian carcinoma (OVCAR8) and more Dox-resistant lymphoma (G3R, 10R, WSUR) and ovarian carcinoma (ADR) were treated with 10 uM […] for 2 hrs. […] Cells were co-stained with the cell-permeable red fluorescent ROS indicator, CellROX, and cell-permeable green fluorescent calcium indicator. Fluo-4AM, and then subjected to flow cytometry to quantitate changes in ROS and calcium levels.
All samples were analyzed at the same time in flow cytometry.

CRL2631 cells = assay: Collagen invasion 3D assay, CRL2631 cells; type: cell-based, human; conditions: 10 uM Rifabutin in collagen matrix, 24 hours
Procedure: The effects of rifabutin on cell invasion was assessed in a collagen invasion 3D assay. Increased interest in the use of 3D culture systems has been motivated by accumulating evidence that 3D models better reflect the microenvironment of tumors and metastases and more accurately predict therapeutic response in vivo compared with conventional 2D assays. A collagen invasion 3D assay allows the rapid and quantitative assessment of invasiveness and a means to screen for drugs which alter the invasive phenotype of tumor cells.
The CHOP-resistant G3 cell line is much more invasive in a collage invasion 3D assay than its CHOP-sensitive parent cell line (CRL2631). Collagen matrices (1 mg/ml) were prepared as previously described in Su. S. C., et al., Molecular profile of endothelial invasion of three-dimensional collagen matrices: insights into angiogenic sprout induction in wound healing. Am. J. Physiol. […] Cell invasion density was quantified by counting fixed cultures under transmitted light using an Olympus CK2 inverted microscope equipped with eyepieces displaying a 10×10 ocular grid. For each condition, four random fields were selected and the number of invading cells per high power field (HPF) was counted manually at 10× magnification, corresponding to 1 mm^2 area. […]

Akt = assay: Effect on Akt; type: cell-based
Excerpt: Although some drug-sensitization or cancer cell inhibition effects may be mediated by the ROS pathway, compositions and methods of the present disclosure may act via other cellular pathways alternatively to or in addition to the Akt/14-3-3ζ/ETC/ROS network. This may be particularly true with respect to drug-sensitization to chemotherapeutics that operate in a different manner than CHOP. For example, ROS may affect the mitochondrial-directed Bcl-2 apoptosis pathway as well. […] Accordingly, it appears likely that an initial ROS induction event may occur, followed by a secondary downstream effect downregulating Akt. In CHOP-resistant cells, Akt is constitutively active thereby increasing Complex I activity resulting in decreases in ROS. Induction of ROS by compositions and methods of the present disclosure will further promote drug sensitivity in the resistant cancer cell by downregulating the Akt pathway.

ABCB1 pumps = ABCB1 pumps (Homo sapiens, UniProt P08183); conditions: NCI/ADR-RES and G3 cells
[3] = test system: primary human fibroblasts; assay: Comparative cytotoxicity on primary human fibroblasts; conditions: FIG. 3A and 3B

ABCB1 pumps, sequence (P08183 whole entry): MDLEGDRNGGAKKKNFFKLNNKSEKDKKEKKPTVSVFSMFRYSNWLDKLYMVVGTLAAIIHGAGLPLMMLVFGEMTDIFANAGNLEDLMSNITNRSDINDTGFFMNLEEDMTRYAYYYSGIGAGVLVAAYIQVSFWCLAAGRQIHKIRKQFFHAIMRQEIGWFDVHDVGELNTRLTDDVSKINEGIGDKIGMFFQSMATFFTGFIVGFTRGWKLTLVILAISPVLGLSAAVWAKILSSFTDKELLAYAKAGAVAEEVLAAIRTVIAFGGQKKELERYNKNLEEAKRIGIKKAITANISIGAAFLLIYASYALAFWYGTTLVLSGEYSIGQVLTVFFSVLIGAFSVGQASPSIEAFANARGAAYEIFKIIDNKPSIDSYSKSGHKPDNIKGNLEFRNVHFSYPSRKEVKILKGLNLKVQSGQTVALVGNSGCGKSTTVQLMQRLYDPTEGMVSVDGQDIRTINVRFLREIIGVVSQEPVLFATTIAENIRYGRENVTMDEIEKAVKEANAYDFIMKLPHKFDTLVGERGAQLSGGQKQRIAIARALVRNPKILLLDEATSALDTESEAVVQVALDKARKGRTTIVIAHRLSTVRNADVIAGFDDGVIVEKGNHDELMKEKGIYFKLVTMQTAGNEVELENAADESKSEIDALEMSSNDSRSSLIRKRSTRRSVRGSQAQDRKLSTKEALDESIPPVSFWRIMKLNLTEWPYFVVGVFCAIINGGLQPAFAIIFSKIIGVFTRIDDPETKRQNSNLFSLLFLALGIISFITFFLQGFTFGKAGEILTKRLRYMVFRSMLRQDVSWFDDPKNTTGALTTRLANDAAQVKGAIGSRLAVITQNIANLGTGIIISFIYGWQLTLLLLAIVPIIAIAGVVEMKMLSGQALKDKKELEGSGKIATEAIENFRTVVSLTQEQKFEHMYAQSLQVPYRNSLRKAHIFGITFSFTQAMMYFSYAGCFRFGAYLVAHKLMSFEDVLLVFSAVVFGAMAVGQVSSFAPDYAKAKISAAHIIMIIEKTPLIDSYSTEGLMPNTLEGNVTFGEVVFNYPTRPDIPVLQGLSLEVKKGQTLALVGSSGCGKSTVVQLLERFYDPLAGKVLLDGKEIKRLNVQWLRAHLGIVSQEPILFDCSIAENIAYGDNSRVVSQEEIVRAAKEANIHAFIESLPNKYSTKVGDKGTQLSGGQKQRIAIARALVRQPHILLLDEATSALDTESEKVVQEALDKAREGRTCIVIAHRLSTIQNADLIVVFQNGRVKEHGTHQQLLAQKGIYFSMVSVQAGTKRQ

CO[C@H]1/C=C/O[C@@]2(C)Oc3c(C)c(O)c4c(c3C2=O)C2=NC3(CCN(CC(C)C)CC3)NC2=C(NC(=O)/C(C)=C\C=C\[C@H](C)[C@H](O)[C@@H](C)[C@@H](O)[C@@H](C)[C@H](OC(C)=O)[C@@H]1C)C4=O [Rifabutin, rifabutin]
Sensitivity of cells to CHOP ([1]; CHOP-sensitive cells, relative to a control drug, FIG. 2B): enhanced the sensitivity | Effect on growth of cells in the absence of CHOP ([1]; CRL2631 cells, FIG. 2A): did not affect the growth | Sensitization of low-ROS cell population to CHOP ([1]; low-ROS CRL2631 cells, 10 uM rifabutin, FIG. 34): sensitized to CHOP | Overall tumor burden per mouse versus CHOP only ([2]; first study, CHOP at maximum tolerated dose weekly for 3 weeks + rifabutin 100 mg/kg by gavage): much lower | Tumor load versus untreated mice ([2]; third study, reduced dosages of CHOP + 33 mg/kg rifabutin weekly): significantly less | Induction of ROS (total intracellular ROS): rapidly induces ROS | Reduction of the amount of invasion (CRL2631 cells): Less of this effect | Time for the effect on Akt (Akt): at least 18 hours | Inhibition of efflux pumps (ABCB1 pumps): clear inhibition | Toxicity to normal cells [3]: not toxic
